In PubChem BioAssay (NCI):
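96-well plates; 48 h exposure; 5 concentrations. Endpoints by linear interpolation between flanking doses. Not reached: highest tested concentration assigned. The concentration for 50% growth inhibition is given as GI50. The concentration for full growth arrest is given as TGI.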

Assays:
Experiment in all cases: DTP human tumour cell line panel, 48 h
[1] = tested on: MDA-MB-435
[2] = tested on: T-47D breast
[3] = tested on: DLD-1 colon
[4] = tested on: KM20L2 colon
[5] = tested on: M19-MEL melanoma
[6] = tested on: MDA-N
[7] = tested on: LXFL 529 NSCLC
[8] = tested on: XF 498 CNS

| SMILES | GI50 [1] | TGI [1] | GI50 [2] | TGI [2] | further results |
| --- | --- | --- | --- | --- | --- |
| C/C(=N\Nc1ccc(Cl)cn1)c1ccc2ccccc2n1 | 4.45 µM | > 100 µM | 3.48 µM | 68.4 µM |  |
| O=C1/C(=C(/c2ccccc2)N2CCOCC2)Cc2ccccc21 | 2.17 µM | 6.87 µM |  |  |  |
| COC(=O)Nc1nc2ccc(C3(c4ccc(F)cc4)OCCO3)cc2[nH]1 | 0.0436 µM | 0.238 µM |  |  |  |
| O=C1C2C3C=C4c5ccccc5N(c5ccccc5)C4(C2C(=O)N1c1ccc([N+](=O)[O-])cc1)[C@H]1C(=O)N(c2ccc([N+](=O)[O-])cc2)C(=O)[C@@H]31 (stereo not given in full) |  |  |  |  | TGI [3]: > 100 µM; TGI [4]: > 100 µM; TGI [5]: > 100 µM |
| CCOC(=O)C1CCN(S(=O)(=O)/N=C2/NC(=O)NC2=C(Cl)Cl)CC1 | 1.93 µM | 4.66 µM | 4.41 µM | 32.9 µM |  |
| CCc1nc2cc(F)c(/C=C/C(=O)NO)cc2c(=O)n1CCc1ccccc1 | 0.445 µM | 11.5 µM | 0.22 µM | 0.853 µM |  |
| COc1c2c(cc3c1OCO3)[C@]13C=C[C@H](OC)C[C@H]1N(C2)CC3O (stereo not given in full) |  | > 100 µM |  | > 100 µM | TGI [6]: > 100 µM |
| Cc1cc(N(CCC#N)CCC#N)ccc1/C=C(\NC(=O)/C=C/c1ccccc1)C(N)=O |  |  |  |  | TGI [3]: > 100 µM; TGI [4]: > 100 µM; TGI [7]: > 100 µM; TGI [5]: > 100 µM; TGI [8]: > 100 µM |
| CC12OC(C(=O)C13CC3)C1C(=O)c3ccc4c(ccc5ccccc54)c3C(=O)C12 (stereo not given) | 35.2 µM | > 100 µM | 25.7 µM | 98.9 µM |  |
| O=C(Nc1n[nH]c2cc(-c3ccccc3)ccc12)C1CC1 | 0.721 µM | > 25 µM | 17.8 µM | > 25 µM |  |
| Cc1cc2nc(C=C(C(F)(F)F)C(F)(F)F)oc2cc1C |  | 4.21 µM |  | 8.53 µM | TGI [6]: > 10 µM |
| CC1=[N+]([O-])c2ccccc2C(=O)C1=O |  |  |  |  | TGI [3]: > 100 µM; TGI [4]: > 100 µM; TGI [7]: > 100 µM; TGI [5]: > 100 µM; TGI [8]: > 100 µM |
| COc1cc2ncnc(-n3ncc4cc(NC(=O)Nc5ccccc5)ccc43)c2cc1OC | 1.4 µM | 33.9 µM | 0.183 µM | 1.37 µM |  |
| Cc1cc(C(=O)Nc2ccc3cc(CN4CCOCC4)ccc3n2)c(C)n1-c1ccccc1 | 1.38 µM | 5.22 µM | 0.393 µM | 4.56 µM |  |
| COc1ccc(C2=C(Cl)c3cc(OC)c(OC)cc3C2Cl)cc1 (stereo not given) |  | 28.5 µM |  | 35.1 µM | TGI [4]: 30.5 µM; TGI [7]: 28.4 µM; TGI [5]: 35.8 µM; TGI [6]: 22.8 µM |
| Cc1[nH]c(=O)nc2[nH][nH]c(=O)c12 |  |  |  |  | TGI [7]: > 100 µM; TGI [5]: > 100 µM |
| COc1cc(/C=C/c2ccc(OC)c(O)c2)cc(OC)c1 |  |  |  |  | TGI [3]: 24.7 µM; TGI [4]: 47.5 µM; TGI [7]: 39.3 µM; TGI [5]: 30.9 µM; TGI [8]: 9.52 µM |
| C=CCCCCC/C=C\[C@@H](O)C#CC#C/C=C/CO | 68.8 µM | > 100 µM | > 100 µM | > 100 µM |  |
| CCCC1=C(CC)C(C(=O)Nc2c(C)cccc2C)=NC(S)N1 (stereo not given) |  |  |  |  | TGI [3]: > 100 µM; TGI [4]: > 100 µM; TGI [7]: > 100 µM; TGI [5]: > 100 µM; TGI [8]: > 100 µM |
| C=C(C)[C@@H]1CC[C@]2(CO)CC[C@]3(C)[C@H](CC[C@@H]4[C@@]5(C)C=C(C#N)C(=O)C(C)(C)[C@@H]5CC[C@]43C)[C@@H]12 |  |  | 1.12 µM | 5.79 µM |  |
| CNC(=S)/N=C(\N)N(C)C |  |  |  |  | TGI [3]: > 100 µM; TGI [4]: > 100 µM; TGI [7]: > 100 µM; TGI [5]: > 100 µM; TGI [8]: > 100 µM |
| CC1(C)C(=O)/C(=C\c2cccnc2)C[C@]2(C)[C@H]3CC[C@@H]4[C@H]5[C@H](C(=O)/C=C/c6cccnc6)CC[C@]5(C(=O)O)CC[C@@]4(C)[C@]3(C)CC[C@@H]12 | 3.2 µM | 12.9 µM | 3.75 µM | 24.6 µM |  |
| CC(C)c1c(O)c(O)c2c(c1O)C(=O)C(O)=C1C(C)(C)CCC[C@@]12C |  | 10.1 µM |  | 16.5 µM |  |
| COc1ccc(-c2[nH]c3ccc(OC)cc3c2/C=C(\C#N)S(=O)(=O)c2ccccc2)cc1 | 0.272 µM | > 100 µM | 0.901 µM | 12.1 µM |  |
| S=c1ssc(N2CCOCC2)c1Cl | 25 µM | 73.7 µM | > 100 µM | > 100 µM |  |
| CN1CCN(CCCNc2nc3ccc(Oc4ccc(NC(=O)Nc5cc(C(F)(F)F)ccc5F)cc4)cc3[nH]2)CC1 | 4.1 µM | 7.78 µM | 3.43 µM | 7.21 µM |  |
| COc1cc2c3c(n(CCCN)c(=O)c2cc1OC)-c1ccc(C#N)cc1C3=O | 18.6 µM | 39.9 µM | 13.2 µM | 34.9 µM |  |

| SMILES | GI50 [1] | TGI [1] | GI50 [2] | TGI [2] | further results |
| --- | --- | --- | --- | --- | --- |
| COCC[C@H]1CCC/C=C/[C@@H]2C[C@H](O)C[C@H]2[C@H](O)/C=C/C(=O)O1 | 0.0595 µM | > 100 µM |  |  |  |
| CCNCCNc1cc(-c2ccc(C(F)(F)F)cc2)c(C#N)c2nc3ccccc3n12 | 1.28 µM | 2.56 µM | 0.79 µM | 2.6 µM |  |
| COc1cc2c(cc1OCCCCC(=O)Nc1cc3c4ccccc4ccc3c3ccccc13)N=C[C@@H]1CCCN1C2=O | 5.44 µM | > 92.9 µM | 11.1 µM | > 100 µM |  |
| COc1cc(OC)c(C(=O)/C=C/c2cccc(C(F)(F)F)c2)c(OC)c1 | 1.61 µM | 6.57 µM | 1.61 µM | 9.43 µM |  |
| C=C1C(=O)O[C@H]2[C@H]1CC/C(COC(=O)NCCCCNC(=O)OC/C1=C/CC[C@@]3(C)O[C@H]3[C@H]3OC(=O)C(=C)[C@@H]3CC1)=C\CC[C@@]1(C)O[C@@H]21 | 1.24 µM | 3.41 µM | 1.51 µM | 4.17 µM |  |
| COc1ccc(C(=O)c2cc(OC)c(OC)c(OC)c2)cc1/C=C/C(=O)c1ccc(F)cc1 | 2.88 µM | 13.6 µM | 3.54 µM | 27.8 µM |  |
| O=C1c2cccnc2-c2nc(-c3ccc(Cl)cc3)cc3c2c1nc1ccccc13 | 22.5 µM | 86.4 µM | > 100 µM | > 100 µM | GI50 [6]: 40 µM; TGI [6]: > 100 µM |
| Cc1cc(NC(=S)SCc2ccc(F)cc2)c([N+](=O)[O-])cc1C |  | 73.2 µM |  | > 100 µM |  |
| COC(=O)C(Cc1nc2ccccc2[nH]c1=O)C(NO)C(=O)Nc1c(Cl)cc([N+](=O)[O-])cc1Cl (stereo not given) |  |  |  |  | TGI [3]: > 100 µM |
| COc1ccc(C(=O)c2cc(C)c(OC)c(C)c2)cc1OC(=O)CCl | < 0.01 µM | < 0.01 µM | 10.5 µM | 67.9 µM |  |
| NC(=O)c1cc(Cl)ccc1NC(=O)/C=C/c1ccccc1 | 0.618 µM | 3.53 µM | 4.8 µM | > 100 µM |  |
| Nc1ccccc1/C(O)=C1/CCOC1=O |  |  |  |  | TGI [3]: > 100 µM; TGI [7]: > 100 µM; TGI [5]: > 100 µM; TGI [8]: > 100 µM |
| CCc1nc(N)nc(N)c1-c1ccc(NC)c([N+](=O)[O-])c1 |  | > 100 µM |  | > 100 µM | TGI [6]: > 100 µM |
| COc1c(C(=O)/C=C/c2ccccc2)c(O)cc2occc12 | 3.21 µM | 13.2 µM | 10.5 µM | 32.4 µM |  |
| COc1ccc(C[N+](C)(C)N)cc1OC | > 100 µM | > 100 µM |  |  | GI50 [6]: > 100 µM; TGI [6]: > 100 µM |
| Cc1cc(C)c(NC(=O)c2sc3nc4c(cc3c2N)C(=O)CCC4)c(C)c1 |  |  | 5 µM | > 63.5 µM |  |
| O=S(=O)(c1ccc(NC(=S)NC23CC4CC(CC(C4)C2)C3)cc1)N1CCCCC1 | 3.49 µM | > 100 µM | 3.28 µM | > 100 µM |  |
| Nc1nc(Nc2cccnc2)sc1C(=O)c1ccccc1F | 3.74 µM | 24.3 µM | 1.83 µM | 11.9 µM |  |
| c1cnn(CN(Cn2cccn2)Cn2cccn2)c1 |  |  |  |  | TGI [3]: > 100 µM; TGI [4]: > 100 µM; TGI [5]: > 100 µM; TGI [8]: > 100 µM |
| CC/C=C\C[C@H](O)C/C=C1/C(=O)C=C[C@@H]1C/C=C\CCCC(=O)OC | 1.19 µM | 10 µM | 2.52 µM | 12.8 µM |  |
| Cc1ccc(NC(=O)c2cccc(C(C)(C)C#N)c2)cc1Nc1ccc2ncn(C)c(=O)c2c1 | 0.0625 µM | > 100 µM | 3.66 µM | > 100 µM |  |
| Cc1cc2ncnn2cc1Nc1ncc2c(n1)n(C1CCOCC1)c(=O)n2C | 8.01 µM | > 100 µM | 1.41 µM | 6.42 µM |  |
| COc1ccc(-c2nc3ccccn3c2/C=C/C(=O)c2cc(OC)c(OC)c(OC)c2)cc1OC |  |  | 3.01 µM | > 100 µM |  |
| c1ccc(Sc2ccc(Cc3nc4cc5ccccc5cc4[nH]3)cc2)cc1 | 11.9 µM | > 67.7 µM | 5.2 µM | 26.2 µM |  |
| COc1ccc2[nH]c3c4[nH]c5ccc(OC)cc5c4c4c(c3c2c1)C(=O)NC4=O | > 12.6 µM | > 25 µM | > 25 µM | > 25 µM |  |
| COc1ccc(/C=C/c2c(C(=O)/C=C/c3ccccc3)c(C)nc3ccccc23)cc1 | 2.18 µM | 5.69 µM | 1.77 µM | 5.11 µM |  |
| CCCC(CCC)NCC(O)c1cc(-c2ccc(C(F)(F)F)cc2)nc(C(F)(F)F)c1 (stereo not given) | 1.96 µM | 3.74 µM | 1.7 µM | 3.3 µM |  |
